# Assay results as given in article PMC6938345, “Inhibition of complement activation, myeloperoxidase, NET formation and oxidant activity by PIC1 peptide variants” (PLoS ONE, 2019).
# Key:
# [1] = test system: purified human neutrophils; assay: NETosis assay, free DNA by PicoGreen; assay type: cell-based; details: Average of n = 3; peptide 2 mM
# Protocol: NETosis assays with immune complexes were performed as previously described. Briefly, normal human serum was stimulated with ovalbumin-antiovalbumin immune complexes in GVBS^++ for 30 minutes at 37 °C. This mixture along with 0.05% H2O2 was then added to purified human neutrophils resuspended in RPMI with or without sarcosine variants (2 mM), allowing NETosis to occur. Quantitation of free DNA released from the neutrophils was performed using PicoGreen. Slides were stained with DAPI (Southern Biotech, Birmingham, AL) and the following antibodies, mouse anti-elastase (Invitrogen, Carlsbad, CA) was used with the secondary goat anti-mouse Alexa Fluor 568 (Novus Biologicals, Centennial, CO) and rabbit anti-histone H3 (Abcam, Cambridge MA) with goat anti-rabbit Alexa Fluor 488 (Novus Biologicals) to visualize formation of NETs which were imaged with fluorescence microscopy with an Olympus BX53 microscope.
# In this assay purified human neutrophils are stimulated with normal human serum activated with ovalbumin-antiovalbumin immune complexes and hydrogen peroxide. Free DNA expressed from the neutrophils is then measured in a PicoGreen assay.
# Fig 5 Sarcosine variant inhibition of NET formation. Fluorescence microscopy images of NET formation after neutrophil stimulation with immune complexes (IC) and hydrogen peroxide (H2O2) compared with neutrophil only control. Variant I8 inhibition of NET formation is shown in the third row. Histones are probed with anti-histone antibody (αhistone), neutrophil elastase is probed with anti-neutrophil elastase (αNE) and DNA is stained with DAPI. Representative images are shown. […] Purified human neutrophils were stimulated with 2% normal human sera pre-incubated with ovalbumin-antiovalbumin immune complexes, and 0.05% H2O2. Sarcosine peptides and PIC1 were added to the sera to a final concentration of 2 mM. Data are the means of n = 3 independent experiments + SEM.
# [2] = Total Antioxidant Capacity (TAC) assay
# Protocol: The TAC (Total Antioxidant Capacity) Assay (Cell Biolabs, Inc, San Diego, CA) was used to measure the antioxidant capacity of the sarcosine variants based on the reduction of copper (II) to copper (I). The kit protocol was performed as recommended.
# Antioxidant activity is measured in copper reducing equivalents (CRE). Peptides were tested over a range of concentrations from 0.03–0.25 mM then compared to the standard. Data are the means of n = 3 independent experiments + SEM.
# [3] = Peptide solubility in water
# Protocol: (PA) (Table 1) were synthesized by New England Peptide (Gardner, MA) to >90% purity. Sarcosine variants and PEG were dissolved in water and the pH was adjusted with NaOH. PA was dissolved in DMSO and then brought up to the final concentration with water resulting in 30% DMSO and pH adjusted. Antibody sensitized sheep erythrocytes (EA), purified C1q and factor B-depleted human sera were purchased from Complement Technology (Tyler, TX). Purified myeloperoxidase was purchased from Lee BioSolutions (Maryland Heights, MO) and tetramethylbenzidine (TMB) and PicoGreen were purchased from Thermo Fisher (Waltham MA).
# (PA), peptide derivatives were synthesized with sarcosine residues substituted at all 15 positions, included a peptide in which the vicinal cysteines at positions 9 and 10 (C9,C10) were replaced with a single sarcosine residue (Table 1).
# [4] = test system: antibody-initiated complement activation (type O sera + type AB red blood cells); assay: ABO incompatibility hemolytic assay (CH50-type, ex vivo); assay type: cell-based, human; details: peptides 1.8 mM
# Protocol: For hemolytic complement assays, human red blood cells (RBCs) from type AB donors were purified, washed and standardized to 1 × 10^9 cells/ml, as previously described. Human sera from type O donors at a 20% final concentration was combined with 1 mM PIC1 or sarcosine variant peptides and the volume was brought up to 0.15 ml with GVBS^++ and 0.5 ml RBCs. For factor B-depleted sera hemolytic assays, a final of 0.005% factor B depleted sera was incubated with 1 mM PIC1 or sarcosine variant peptides with 0.1 ml antibody-sensitized sheep red blood cells (EA) in a final volume of 0.75 ml GVBS^++. The samples were incubated for 1 hour at 37 °C and then 1.0 ml of GVBS^-—was added to the factor B-depleted samples to stop the reaction. The samples were spun at 3,000 rpm for 5 minutes and the supernatant was collected and read at 412 nm. Values are represented as a percent of the positive control, which consists of human O sera and AB red blood cells in GVBS^++ buffer.
# In order to evaluate the extent to which the peptide variants inhibit antibody-initiated complement activation, we tested them in two hemolytic assays including an ABO incompatibility ex vivo assay (Fig 1A) and a classical pathway CH50-type assay in factor B-depleted sera (Fig 1B). In the ABO incompatibility hemolytic assay, purified erythrocytes from a ‘type AB+’ donor are incubated with sera from a ‘type O’ subject containing anti-A and anti-B antibodies; peptides were tested at 1.8 mM. […] We then performed a CH50-type hemolytic assay, with antibody-sensitized sheep erythrocytes, isolating the classical pathway by utilizing factor B-depleted sera; peptides were tested at 0.4 mM.
# Fig 1 Sarcosine variant inhibition of complement activation in hemolytic assays and C1q binding. A) Inhibition of ABO incompatibility hemolysis in a CH50-type assay. Peptides are at a final concentration of 1.8 mM. […] Data are the means of n = 4 independent experiments + SEM. B) Inhibition of classical complement pathway-mediated hemolysis in factor B-depleted sera in a CH50-type assay. Peptides are at a final concentration of 0.4 mM. Data are the means of n = 4 independent experiments + SEM. C) Binding of increasing concentrations of sarcosine variants to purified C1q in an ELISA-type assay. Data are the means of n = 3 independent experiments ± SEM. D) Half-maximal binding concentrations were calculated for each peptide’s binding curve.
# MPO heme ring = target: T1, MPO heme ring (Homo sapiens, UniProt P05164); assay: MPO heme ring oxidative degradation; assay type: biochemical; details: peptides 3.0 mM, H2O2, absorbance 300-550 nm
# T1 construct: purchased Lee BioSolutions (Maryland Heights, MO)
# T1 sequence (P05164 49-745): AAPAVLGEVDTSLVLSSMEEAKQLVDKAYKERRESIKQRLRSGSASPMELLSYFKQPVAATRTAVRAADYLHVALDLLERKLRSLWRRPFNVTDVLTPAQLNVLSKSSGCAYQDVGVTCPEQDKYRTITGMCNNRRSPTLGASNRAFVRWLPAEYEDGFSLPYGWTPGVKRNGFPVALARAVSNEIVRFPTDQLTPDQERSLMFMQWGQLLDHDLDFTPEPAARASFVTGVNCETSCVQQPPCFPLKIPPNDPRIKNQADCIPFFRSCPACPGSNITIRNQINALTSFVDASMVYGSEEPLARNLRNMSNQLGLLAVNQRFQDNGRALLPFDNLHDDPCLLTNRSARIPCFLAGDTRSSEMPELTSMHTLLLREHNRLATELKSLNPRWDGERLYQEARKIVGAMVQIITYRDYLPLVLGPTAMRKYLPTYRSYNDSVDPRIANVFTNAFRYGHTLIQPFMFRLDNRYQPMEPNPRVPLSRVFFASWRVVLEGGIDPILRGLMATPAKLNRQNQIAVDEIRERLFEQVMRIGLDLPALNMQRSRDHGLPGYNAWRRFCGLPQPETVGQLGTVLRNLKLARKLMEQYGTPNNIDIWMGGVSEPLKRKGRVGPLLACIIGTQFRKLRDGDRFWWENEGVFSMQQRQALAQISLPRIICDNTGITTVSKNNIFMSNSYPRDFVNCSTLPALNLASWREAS
# Protocol: In a 96 well plate, 0.025 ml of 1.7 mg/ml MPO was combined with 0.00125 ml of 0.5% H2O2 and 3 mM PIC1 or sarcosine variant peptides in a total volume of 0.125 ml PBS and left to incubate at room temperature for 2 minutes. Using a 96 well plate reader, the wells were scanned for absorbance from 300–550 nm to generate curves reflecting the iron state in the MPO heme ring, as previously reported.
# We then evaluated the ability of the variants to prevent degradation of the heme ring in the MPO molecule. […] This can be evaluated via spectrometric measurements of absorption of wavelengths from 300–550 nm. Absorption measurements were made over this spectrum for all variants (Fig 3A–3H). […] The heme ring preservation for these two variants was greater than that for the parent compound, PA-dPEG24.
# Fig 3 Sarcosine variant protection of MPO heme ring from oxidative degradation. Absorbance spectra for the heme ring is shown in the absence of hydrogen peroxide (MPO) in red, in the presence of hydrogen peroxide (MPO+H2O2) in black, in the presence of peptide in blue, and in the presence of hydrogen peroxide and peptide together in green. […] B-H) Peptides A2 – C9,10 are denoted in the legends. Peptides were tested at a concentration of 3.0 mM.
structure (smiles),measurement,setting,value
CC[C@H](C)[C@H](N)C(=O)N[C@@H](C)C(=O)N[C@@H](CC(C)C)C(=O)N[C@H](C(=O)N[C@@H](CC(C)C)C(=O)N[C@@H](CCC(=O)O)C(=O)N1CCC[C@H]1C(=O)N[C@H](C(=O)N(C)CC(=O)N[C@@H](CS)C(=O)N[C@@H](CCC(N)=O)C(=O)N[C@@H](CCC(=O)O)C(=O)N[C@@H](CCCNC(=N)N)C(=O)N[C@@H](C)C(=O)N[C@@H](C)C(=O)O)[C@@H](C)CC)[C@@H](C)CC [C9],"PICO green - NETs, free DNA release",[1],38
same,"TAC assay, antioxidant activity",[2]; Avg of n = 3,845.83 copper reducing equivalents (CRE)
same,antioxidant capacity (in words),[2]; TAC assay,approximately half of the antioxidant capacity as PA-dPEG24
same,solubility in water (in words),[3],soluble in water
same,ABO hemolysis,"[4]; Avg of n = 4, concentration basis of PIC1 not stated",18.25 % of Control
same,inhibition of ABO incompatible hemolysis (in words),[4],to a greater extent than did the PA-dPEG24
same,protection of MPO heme ring from degradation (in words),MPO heme ring,near perfect preservation
